Measurements taken from patent US5494932A, “Sulfonic stilbene derivatives in the treatment of viral disease” (Merrell Dow Pharmaceuticals Inc., priority 1991, dated 1996).
Where two headings read alike, the source gives them in different places.

Legend:
HIV-1 = experiment: Back titration of cell-free supernatants (infectivity) on fresh uninfected JM cells; type: cell-based, HIV-1 (human T cell line JM)
Protocol: Protocol: JM cells were infected with HIV-1 to give a multiplicity of infection of 0.001. Virus adsorption was for 2 hours at room temperature. The cells were washed and distributed into wells containing different concentrations of test compounds and incubated. After 2 days the cells were observed and syncytia were counted. The cell-free supernatant fluids were harvested at 4 and 6 days post infection and assayed for levels of p24 viral core antigen and after 6 days the supernatants were also titrated to determine levels of infectivity.
*Syncytia-forming unit; cellfree supernatants from virus infected cells
having received the indicated concentration of compounds were incubated
with fresh uninfected JM cells and syncytia were scored to determine the
number of infectious units/ml.
supernatants from virusinfected control cells not having received drug

HCMV = experiment: Plaque reduction assay, HCMV; type: cell-based
Protocol: Protocol: Plaque reduction assay. Treatment after adsorption during incubation.

HIV-1 infected JM cells = experiment: Treatment of HIV-1 infected JM cells with DIDS, SITS and ddC; type: cell-based, HIV-1 (human T cell line JM)
Protocol: Protocol: JM cells were infected with HIV to give approximately 100 syncytia after 3 days. Virus adsorption was at room temperature for 2 hours. The cells were then washed thoroughly and distributed in wells of a tissue culture plate at a concentration of 1×10^5 cells/well. At 24 hours post infection either DIDS (100 μg/ml), SITS (100 μg/ml), or ddC (5 μM) were added to wells having infected cells. As virus controls, some wells had no drug added. At 42 hours post infection other wells received either ddC (5 μM), SITS (100 μg/ml), or DIDS (100, 50, 25, 12.5, 6.25 μg/ml). Syncytia were scored at 3 and 4 days post-infection and the supernatant fluids were harvested after 3 and 4 days for p24 core antigen determination.

[1] = system: virus-induced cell fusion (gp120-CD4 dependent); experiment: Anti-syncytial cocultivation assay: H9 cells chronically infected with HIV-1 RF mixed with uninfected C8166 cells; type: cell-based, HIV-1 RF; human H9 and C8166 cells
Description: Syncytial cell formation depends on the interaction of gp120, expressed in the membranes of infected cells, with the CD4 antigen on neighboring cells (Camerini and Seed, 1990). We utilized a cell cocultivation model to examine the effect of the stilbene disulfonic acids on the gp120-CD4 dependent fusion process. This system consists of mixing H9 cells chronically infected with HIV-1 RF (gp120^+ cells) with uninfected C8166 cells (CD4^+ cells) as the fusion indicator. In this assay, cell fusion occurred within 2 to 3 hours of mixing at 37° C. and substantial syncytia were observed after a further 3 to 4 hours (FIG. 1, Panel A). […] These findings with the sulfated polysaccharides were consistent with a previous report (Montefiori et al., 1990).
The effect of the stilbene disulfonic acids and various sulfated polysaccharides on virus-induced cell fusion. In this assay, 10^5 H9 cells, chronically infected with the HIV-1 strain RF, were cocultured with 10^5 uninfected C8166 cells in the absence and presence of the test compounds. FIG. 1A: Positive control, no compound addition; FIG. 1B: 100 μg/ml DIDS; FIG. 1C: 100 μg/ml SITS; FIG. 1D: positive control; FIG. 1E: 10 μg/ml 500,000 MW dextran sulfate; FIG. 1F: 250 μg/ml heparin.
CD4^+ uninfected C8166 cells were seeded into 24-well trays ([…]) that contained growth medium and various concentrations of test compounds. H9 cells, chronically infected with the RF strain of HIV-1, were washed and then added as a source of gp120^+ cells at 10^5 cells/well except for the noncytopathic control: those wells received uninfected H9 cells. The trays were then incubated at 37° C. and the cocultures were observed between 1 and 6 hours p.i. Syncytia were recorded on photographic film.
Protocol: H9 cells chronically infected with RF strain of HIV-1 and uninfected C8166 cells were mixed in the presence of either DIDS, SITS, H2 DIDS, dextran sulfate, or heparin (100 μg/ml). The cells were observed after 2, 31/2 and 51/2 hours and the amount of cell fusion quantified.
Protocol: H9 cells chronically inected with HIV-1 and uninfected C8166 cells were mixed in the presence of either DIDS, SITS, H2 DIDS, dextran sulfate, heparin (at 100 μg/ml), OKT4 or OKT4A (at a 1/50 dilution). The cells were observed after 4 hours and the amount of cell fusion quantitied. OKT4 and OKT4A are monoclonal antibodies that bined the CD4 cell surface antigen.

Question: With `O=S(=O)(O)c1cc(N=C=S)ccc1C=Cc1ccc(N=C=S)cc1S(=O)(=O)O` [DIDS, 4,4'-diisothiocyanatostilbene-2,2'-disulfonic acid] as the compound, how does the “Back titration of cell-free supernatants at 6 days p.i.” value (HIV-1; 12.5 μg/ml) read?
Answer: 2.4 × 10^3 SFUs/ml

Question: What about the “Back titration of cell-free supernatants at 6 days p.i.” value (HIV-1; 50 μg/ml) of the same compound?
Answer: < 10^1 SFUs/ml

Question: What about the “Back titration of cell-free supernatants at 6 days p.i.” value (HIV-1; 100 μg/ml) of the same compound?
Answer: < 10^1 SFUs/ml

Question: What about the “viral infectivity in the cell-free supernatants” value (HIV-1; data not shown) of the same compound?
Answer: absence of viral infectivity

Question: What about the Plaque counts (HCMV; 1 μg/ml, first count) of the same compound?
Answer: 15

Question: What about the Plaque counts (HCMV; 1 μg/ml, second count) of the same compound?
Answer: 14

Question: And the Plaque counts (HCMV; 10 μg/ml, first count)?
Answer: 16

Question: What about the Plaque counts (HCMV; 10 μg/ml, second count) of the same compound?
Answer: 12

Question: And the Plaque counts (HCMV; 10 μg/ml, third count)?
Answer: 11

Question: What about the Plaque counts (HCMV; 100 μg/ml, first count) of the same compound?
Answer: 3

Question: And the Plaque counts (HCMV; 100 μg/ml, second count)?
Answer: 4

Question: And the Plaque counts (HCMV; 100 μg/ml, third count)?
Answer: 3

Question: And the Plaque counts (HCMV; 1000 μg/ml, first count)?
Answer: 0

Question: And the Plaque counts (HCMV; 1000 μg/ml, second count)?
Answer: 0

Question: What about the Plaque counts (HCMV; 1000 μg/ml, third count) of the same compound?
Answer: 0

Question: And the activity at 1 µg/mL (HCMV; Human betaherpesvirus 5, 1 μg/ml, read-out: Mean % VC (plaques))?
Answer: 49%

Question: And the activity at 10 µg/mL (HCMV; Human betaherpesvirus 5, 10 μg/ml, read-out: Mean % VC (plaques))?
Answer: 43%

Question: And the activity at 100 µg/mL (HCMV; Human betaherpesvirus 5, 100 μg/ml, read-out: Mean % VC (plaques))?
Answer: 10%

Question: What about the activity at 1000 µg/mL (HCMV; Human betaherpesvirus 5, 1000 μg/ml, read-out: Mean % VC (plaques)) of the same compound?
Answer: 0%

Question: What about the “Mean syncytia/well 3 days p.i.” value (HIV-1 infected JM cells; 6 μg/ml, added 42 hr) of the same compound?
Answer: As VC

Question: What about the “Mean syncytia/well 4 days p.i.” value (HIV-1 infected JM cells; 6 μg/ml, added 42 hr) of the same compound?
Answer: As VC

Question: And the “p24 antigen 3 days p.i.” value (HIV-1 infected JM cells; 6 μg/ml, added 42 hr)?
Answer: 18000 pg/mL

Question: And the “p24 antigen 4 days p.i.” value (HIV-1 infected JM cells; 6 μg/ml, added 42 hr)?
Answer: 34000 pg/mL

Question: What about the “Mean syncytia/well 3 days p.i.” value (HIV-1 infected JM cells; 12 μg/ml, added 42 hr) of the same compound?
Answer: As VC

Question: And the “Mean syncytia/well 4 days p.i.” value (HIV-1 infected JM cells; 12 μg/ml, added 42 hr)?
Answer: As VC

Question: And the “p24 antigen 3 days p.i.” value (HIV-1 infected JM cells; 12 μg/ml, added 42 hr)?
Answer: 210000 pg/mL

Question: And the “p24 antigen 4 days p.i.” value (HIV-1 infected JM cells; 12 μg/ml, added 42 hr)?
Answer: 390000 pg/mL

Question: What about the “Mean syncytia/well 3 days p.i.” value (HIV-1 infected JM cells; 25 μg/ml, added 42 hr) of the same compound?
Answer: As VC

Question: What about the “Mean syncytia/well 4 days p.i.” value (HIV-1 infected JM cells; 25 μg/ml, added 42 hr) of the same compound?
Answer: As VC

Question: What about the “p24 antigen 3 days p.i.” value (HIV-1 infected JM cells; 25 μg/ml, added 42 hr) of the same compound?
Answer: 15000 pg/mL

Question: And the “p24 antigen 4 days p.i.” value (HIV-1 infected JM cells; 25 μg/ml, added 42 hr)?
Answer: 59000 pg/mL

Question: What about the “Mean syncytia/well 3 days p.i.” value (HIV-1 infected JM cells; 50 μg/ml, added 42 hr) of the same compound?
Answer: > 80

Question: And the “Mean syncytia/well 4 days p.i.” value (HIV-1 infected JM cells; 50 μg/ml, added 42 hr)?
Answer: 100

Question: And the “p24 antigen 3 days p.i.” value (HIV-1 infected JM cells; 50 μg/ml, added 42 hr)?
Answer: 19200 pg/mL

Question: And the “p24 antigen 4 days p.i.” value (HIV-1 infected JM cells; 50 μg/ml, added 42 hr)?
Answer: 63000 pg/mL

Question: And the “Mean syncytia/well 3 days p.i.” value (HIV-1 infected JM cells; 100 μg/ml, added 24 hr)?
Answer: 0

Question: And the “Mean syncytia/well 4 days p.i.” value (HIV-1 infected JM cells; 100 μg/ml, added 24 hr)?
Answer: 20

Question: And the “p24 antigen 3 days p.i.” value (HIV-1 infected JM cells; 100 μg/ml, added 24 hr)?
Answer: 6100 pg/mL

Question: And the “p24 antigen 4 days p.i.” value (HIV-1 infected JM cells; 100 μg/ml, added 24 hr)?
Answer: 15800 pg/mL

Question: What about the “Mean syncytia/well 3 days p.i.” value (HIV-1 infected JM cells; 100 μg/ml, added 42 hr) of the same compound?
Answer: 34

Question: What about the “Mean syncytia/well 4 days p.i.” value (HIV-1 infected JM cells; 100 μg/ml, added 42 hr) of the same compound?
Answer: 70

Question: And the “p24 antigen 3 days p.i.” value (HIV-1 infected JM cells; 100 μg/ml, added 42 hr)?
Answer: 19800 pg/mL

Question: What about the “p24 antigen 4 days p.i.” value (HIV-1 infected JM cells; 100 μg/ml, added 42 hr) of the same compound?
Answer: 20900 pg/mL

Question: And the activity at 6 µg/mL (HIV-1 infected JM cells; Human immunodeficiency virus 1, 72 h, 6 μg/ml, added 42 hr, read-out: p24 antigen 3 days p.i., % control)?
Answer: 38%

Question: And the activity at 12 µg/mL (HIV-1 infected JM cells; Human immunodeficiency virus 1, 72 h, 12 μg/ml, added 42 hr, read-out: p24 antigen 3 days p.i., % control)?
Answer: > 100%

Question: What about the activity at 25 µg/mL (HIV-1 infected JM cells; Human immunodeficiency virus 1, 72 h, 25 μg/ml, added 42 hr, read-out: p24 antigen 3 days p.i., % control) of the same compound?
Answer: 32%

Question: And the activity at 50 µg/mL (HIV-1 infected JM cells; Human immunodeficiency virus 1, 72 h, 50 μg/ml, added 42 hr, read-out: p24 antigen 3 days p.i., % control)?
Answer: 41%

Question: What about the activity at 100 µg/mL (HIV-1 infected JM cells; Human immunodeficiency virus 1, 72 h, 100 μg/ml, added 24 hr, read-out: p24 antigen 3 days p.i., % control) of the same compound?
Answer: 13%

Question: What about the activity at 100 µg/mL (HIV-1 infected JM cells; Human immunodeficiency virus 1, 72 h, 100 μg/ml, added 42 hr, read-out: p24 antigen 3 days p.i., % control) of the same compound?
Answer: 42%

Question: What about the activity at 6 µg/mL (HIV-1 infected JM cells; Human immunodeficiency virus 1, 96 h, 6 μg/ml, added 42 hr, read-out: p24 antigen 4 days p.i., % control) of the same compound?
Answer: 38%

Question: And the activity at 12 µg/mL (HIV-1 infected JM cells; Human immunodeficiency virus 1, 96 h, 12 μg/ml, added 42 hr, read-out: p24 antigen 4 days p.i., % control)?
Answer: 44%

Question: And the activity at 25 µg/mL (HIV-1 infected JM cells; Human immunodeficiency virus 1, 96 h, 25 μg/ml, added 42 hr, read-out: p24 antigen 4 days p.i., % control)?
Answer: 66%

Question: What about the activity at 50 µg/mL (HIV-1 infected JM cells; Human immunodeficiency virus 1, 96 h, 50 μg/ml, added 42 hr, read-out: p24 antigen 4 days p.i., % control) of the same compound?
Answer: 70%

Question: What about the activity at 100 µg/mL (HIV-1 infected JM cells; Human immunodeficiency virus 1, 96 h, 100 μg/ml, added 24 hr, read-out: p24 antigen 4 days p.i., % control) of the same compound?
Answer: 18%

Question: And the activity at 100 µg/mL (HIV-1 infected JM cells; Human immunodeficiency virus 1, 96 h, 100 μg/ml, added 42 hr, read-out: p24 antigen 4 days p.i., % control)?
Answer: 23%

Question: And the “cell fusion / syncytia” value ([1]; 100 μg/ml, at the time of cell mixing)?
Answer: completely prevented cell fusion

Question: And the “Syncytia after 2 hrs” value ([1]; 100 μg/ml, virus control ++)?
Answer: 0

Question: And the “Syncytia after 3 1/2 hrs” value ([1]; 100 μg/ml, virus control +++)?
Answer: 0

Question: What about the “Syncytia after 5 1/2 hrs” value ([1]; 100 μg/ml, virus control +++) of the same compound?
Answer: 0

Question: And the “protection of C8166 cells” value ([1]; 200 μg/ml, 5 days post-mixing, not shown)?
Answer: totally protected the C8166 cells

Question: And the “blocking virus-induced cell fusion and death” value ([1]; summary statement)?
Answer: siginificant antiviral activity
